In patent US8324190B2, “Treatment of proliferative disorders with amino-substituted (E)-2,6- dialkoxystyryl 4-substituted benzylsulfones” (Temple University—Of The Commonwealth System of Higher …, priority 2002, dated 2012):
Where a name gives a salt, the structure may show the parent alone.

Key:
Assay in all cases: Tumor cell viability assay, Trypan blue exclusion
Format in all cases: cell-based
Conditions in all cases: cell viability after 96 hours
[1] = system: colorectal carcinoma cell line DLD-1
Description: (§1) BT-20 is an estrogen-unresponsive cell line. NIH/3T3 and HFL are normal murine and human fibroblasts, respectively. BT-20, DLD-1 and H157 were grown in Dulbecco's modified Eagle's medium (DMEM) containing 10% fetal bovine serum supplemented with penicillin and streptomycin. DU145 was cultured in RPMI with 10% fetal bovine serum containing penicillin and streptomycin. NIH3T3 and HFL cells were grown in DMEM containing 10% calf serum supplemented with penicillin and streptomycin. Cells were plated at density levels of 1.0×10^5 cells per well in six-well plates. Cell cultures were maintained at 37° C. in a humidified atmosphere of 5% CO2. Cells were treated with compounds of the invention at various concentrations. Cell viability was determined after 96 hours by the Trypan blue exclusion method. […] The number of viable cells remaining after 96 hours of treatment was determined using hemacytometer following trypan blue staining. The number of viable cells has been plotted as the percent of Vehicle treated (control) cells.

[2] = system: breast adenocarcinoma cell line BT-20
Description: as §1

[3] = system: prostate carcinoma cell line DU-145
Description: as §1

[4] = system: non-small cell lung carcinoma cell line H157
Description: as §1

Measured: IC50

COc1cc(OC)c(/C=C/S(=O)(=O)Cc2ccc(OC)c(NC(=O)COC(C)=O)c2)c(OC)c1 [Example 26, (E)-2,4,6-trimethoxystyryl-3-(acetoxyacetamido)-4-methoxy-benzylsulfone]
< 10 µM: all assays above

COc1cc(OC)c(/C=C/S(=O)(=O)Cc2ccc(OC)c(NC(=O)COC(=O)CCC(=O)O)c2)c(OC)c1 [Example 36, (E)-2,4,6-trimethoxystyryl-3-[3-(3-carboxypropanoyloxy)-acetamido]-4-methoxybenzylsulfone]
< 10 µM: all assays above

COc1cc(OC)c(/C=C/S(=O)(=O)Cc2ccc(OC)c(NC(=O)c3ccccc3)c2)c(OC)c1 [Example 9, (E)-2,4,6-Trimethoxystyryl-3-(benzamido)-4-methoxybenzyl-sulfone]
< 10 µM: all assays above

(E)-2,4,6-Trimethoxystyryl-3-amino-4-methoxybenzylsulfone-D-serineamide [Example 15]
< 10 µM: all assays above

COc1cc(OC)c(/C=C/S(=O)(=O)Cc2ccc(OC)c(NC(=O)C(F)(F)F)c2)c(OC)c1 [Example 32, (E)-2,4,6-trimethoxystyryl-3-(trifluoroacetamido)-4-methoxy-benzylsulfone]
< 10 µM: all assays above

COc1cc(OC)c(/C=C/S(=O)(=O)Cc2ccc(OC)c(NC(=N)N)c2)c(OC)c1 [Example 3, (E)-2,4,6-Trimethoxystyryl-3-(guanidino)-4-methoxybenzyl-sulfone]
< 10 µM: all assays above

COc1cc(OC)c(/C=C/S(=O)(=O)Cc2ccc(OC)c(NC(=O)C(C)(C)OC(C)=O)c2)c(OC)c1 [Example 31, (E)-2,4,6-trimethoxystyryl-3-(2-methyl-2-acetoxypropionamido)-4-methoxybenzyl-sulfone]
< 10 µM: all assays above

COc1cc(OC)c(/C=C/S(=O)(=O)Cc2ccc(OC)c(NC(=O)CCl)c2)c(OC)c1 [Example 7, (E)-2,4,6-Trimethoxystyryl-3-(chloroacetamido)-4-methoxybenzyl-sulfone]
< 10 µM: all assays above

COC(=O)C(F)(F)C(=O)Nc1cc(CS(=O)(=O)/C=C/c2c(OC)cc(OC)cc2OC)ccc1OC [Example 47, (E)-2,4,6-trimethoxystyryl-3-(methyl-2,2-difluoromalonamido)-4-methoxybenzylsulfone]
< 10 µM: all assays above

(E)-2,4,6-Trimethoxystyryl-3-amino-4-methoxybenzylsulfone-L-lysineamide [Example 13]
< 10 µM: all assays above

COc1cc(OC)c(/C=C/S(=O)(=O)Cc2ccc(OC)c(NCCCC(=O)O)c2)c(OC)c1 [Example 39, (E)-2,4,6-trimethoxystyryl-3-(3-carboxypropylamino)-4-methoxybenzylsulfone]
< 10 µM: all assays above

COc1ccc(S(=O)(=O)Nc2cc(CS(=O)(=O)/C=C/c3c(OC)cc(OC)cc3OC)ccc2OC)cc1 [Example 42, (E)-2,4,6-trimethoxystyryl-3-(4-methoxybenzenesulfamyl)-4-methoxybenzylsulfone]
< 10 µM: all assays above

CC[N+](CC)(CC)CC(=O)Nc1cc(CS(=O)(=O)/C=C/c2c(OC)cc(OC)cc2OC)ccc1OC [Example 28, (E)-2,4,6-trimethoxystyryl-3-(triethylammoniumacetamido)-4-methoxybenzylsulfone]
< 10 µM: all assays above

COc1cc(OC)c(/C=C/S(=O)(=O)Cc2ccc(OC)c(NC(=O)C[N+](CCO)(CCO)CCO)c2)c(OC)c1 [Example 29, (E)-2,4,6-trimethoxystyryl-3-[tri-(2-hydroxyethyl)ammonium]-acetamido-4-methoxybenzylsulfone]
< 10 µM: all assays above

COc1cc(OC)c(/C=C/S(=O)(=O)Cc2ccc(OC)c(NC(=O)CCC(=O)O)c2)c(OC)c1 [Example 34, (E)-2,4,6-trimethoxystyryl-3-(succinamido)-4-methoxybenzyl-sulfone]
< 10 µM: all assays above

COc1cc(OC)c(/C=C/S(=O)(=O)Cc2ccc(OC)c(NC(=O)CN)c2)c(OC)c1 [Example 49, (E)-2,4,6-Trimethoxy-styryl-3-(aminoacetamido)-4-methoxy-benzylsulfone, hydrochloride]
< 10 µM: all assays above

COc1cc(OC)c(/C=C/S(=O)(=O)Cc2ccc(OC)c(NS(=O)(=O)C(F)(F)F)c2)c(OC)c1 [Example 33, (E)-2,4,6-trimethoxystyryl-3-(trifluoromethanesulfonamido)-4-methoxy-benzylsulfone]
< 10 µM: all assays above

COc1cc(OC)c(/C=C/S(=O)(=O)Cc2ccc(OC)c(NC(=O)C(C)O)c2)c(OC)c1 (stereo not shown) [Example 27, (E)-2,4,6-Trimethoxystyryl-3-(2-hydroxypropionamido)-4-methoxy benzylsulfone]
< 10 µM: all assays above

COc1cc(OC)c(/C=C/S(=O)(=O)Cc2ccc(OC)c(NS(=O)(=O)c3ccc(N)cc3N)c2)c(OC)c1 [Example 20, (E)-2,4,6-Trimethoxystyryl-3-(2,4-diaminobenzenesulfamyl)-4-methoxybenzylsulfone]
< 10 µM: all assays above

COc1cc(OC)c(/C=C/S(=O)(=O)Cc2ccc(OC)c(NC(=O)C(C)(C)O)c2)c(OC)c1 [Example 30, (E)-2,4,6-trimethoxystyryl-3-(2-methyl-2-hydroxypropion-amido)-4-methoxybenzylsulfone]
< 10 µM: all assays above

COC(=O)CCC(=O)Nc1cc(CS(=O)(=O)/C=C/c2c(OC)cc(OC)cc2OC)ccc1OC [Example 44, (E)-2,4,6-trimethoxystyryl-3-(methylsuccinamido)-4-methoxy-benzylsulfone]
< 10 µM: all assays above

COc1cc(OC)c(/C=C/S(=O)(=O)Cc2ccc(OC)c(S(=O)(=O)NCC(=O)O)c2)c(OC)c1 [Example 1, (E)-2,4,6-Trimethoxystyryl-3-(carboxymethylsulfamyl)-4-methoxybenzylsulfone]
< 10 µM: all assays above
